The nature of data set [1]: Microsomal clearance, dog. It is filed as in vitro ADME. The note with it: male, Beagle, pooled liver microsomes. As for the experimental part:
(§1) Pooled human liver microsomes (pooled male and female), pooled rat liver microsomes (male Sprague Dawley rats) and pooled dog liver microsomes (male Beagle dog) are purchased from a reputable commercial supplier and stored at −80° C. prior to use.
(§2) Microsomes (final protein concentration 0.5 mg/mL), 0.1 M phosphate buffer pH 7.4 and compound 2 (final substrate concentration 3 μM; final DMSO concentration 0.25%) are pre-incubated at 37° C. prior to the addition of NADPH (final concentration 1 mM) to initiate the reaction. The final incubation volume is 50 μL. A control incubation is included for each compound tested where 0.1 M phosphate buffer pH 7.4 is added instead of NADPH (minus NADPH). Two control compounds are included with each species. All incubations are performed singularly for each test compound.
(§3) Compounds are incubated for 0, 5, 15, 30 and 45 min. The control (minus NADPH) is incubated for 45 min only. The reactions are stopped by transferring 25 μL of incubate to 50 μL methanol at the appropriate time points. […] Following protein precipitation, the sample supernatants are combined in cassettes of up to 4 compounds, internal standard is added and samples analysed by LC-MS/MS. From a plot of ln peak area ratio (compound peak area/internal standard peak area) against time, the gradient of the line is determined.
A general note: Liver microsomes are vesicles of endoplasmic reticulum, rich in cytochrome P450 enzymes.

Data set [2] is described as follows: Mouse in vivo pharmacokinetic assay. Set-up: species or system male CD-1 mice. As for the experimental part: Pharmacokinetic evaluation of compound 2 was performed in male CD-1 mice following intravenous (IV) and oral (PO) administration. For intravenous administration the compound was formulated in solution in 40:60 DMA:saline and was administered at 1 mg/kg via the tail vein. For oral administration the compound was formulated in suspension in water containing 1% methylcellulose and 0.1% Tween80, and was administered at 10 mg/kg by oral gavage. Blood samples were taken by cardiac puncture under terminal anaesthesia (isoflurane) at ten timepoints between 1 minute and 24 hours following IV administration, and at nine timepoints between 5 minutes and 24 hours following PO administration (n=3 per timepoint). Plasma was immediately obtained by centrifugation, and the resulting samples frozen until analysis. Samples, along with a calibration curve prepared by spiking the compound into control plasma, were subsequently prepared for quantitative analysis by precipitation of plasma proteins with acetonitrile. Analysis was by ultra high performance liquid chromatography (Agilent 1290 system) coupled to time of flight mass spectrometry, using electrospray ionisation (Agilent 6550 system). Pharmacokinetic parameters were determined by non-compartmental analysis of mean concentration data using Phoenix WinNonlin v6.4.

For another data set, the system named is RSV. The experiment in a line: Plaque reduction assay in Vero cells (standard and time of addition). The settings on record: human respiratory syncytial virus. It is filed as cell-based. A general note: In a plaque reduction assay, fewer plaques than in the control indicate reduced infectivity or spread.
A short description of data set [3]: Microsomal clearance, rat. It is filed as in vitro ADME. The settings on record: male, Sprague Dawley, pooled liver microsomes. As to the method: as §1, §2, §3
Data set [4] can be described thus: Cell cytotoxicity CC50 assay (A549 and HeLa cells). It is filed as cell-based. The settings on record: human, 6-8 days, DMEM+2% FCS. The text has this:
Cells were obtained from ATCC and the virus preparation was subjected to one round of centrifugation through a 40% (V/V) glycerol to remove any interferon produced from infected cells. Growth medium was Dulbecco's modified Eagle's medium (DMEM) with 10% (v/v) foetal calf serum (FCS), Viral maintainance medium was DMEM+2% (v/v) FCS.
Cell Cytotoxicity—CC50 (Concentration at which 50% Cell Toxicity is Observed):
A549 cells and HeLa cells were used to seed a set of 96 well plates grown until 50% confluent, a 2 fold serial dilution of the compound was performed on each cell line with DMSO (only) as control starting with 100 μM of the compound. Medium used was DMEM+2% FCS (normal medium for viral growth).
Cells were allowed to grow for 6-8 days to mimic a TCID50 assay after which cell viability was determined by adding Almar blur (similar to XT) and reading at 600 nm (excitation 540 nm).

Data set [5] can be described thus: Microsomal clearance, human. It is filed as in vitro ADME. The settings on record: both, pooled liver microsomes. As to the method:
as §1, §2, §3

In another data set the test system is MDR1. Nature of the data set: MDR1-MDCK permeability assay. It is filed as in vitro ADME. The note with it: dog. As for the experimental part: (§4) MDR1-MDCK cells obtained from the NIH (Rockville, Md., USA) are used between passage numbers 6-30. Cells are seeded onto Millipore Multiscreen Transwell plates at 3.4×10^5 cells/cm^2. The cells are cultured in DMEM and media is changed on day 3. On day 4 the permeability study is performed. Cell culture and assay incubations are carried out at 37° C. in an atmosphere of 5% CO2 with a relative humidity of 95%. On the day of the assay, the monolayers are prepared by rinsing both basolateral and apical surfaces twice with Hanks Balanced Salt Solution (HBSS) at the desired pH warmed to 37° C. Cells are then incubated with HBSS at the desired pH in both apical and basolateral compartments for 40 min to stabilise physiological parameters.
(§5) The dosing solutions are prepared by diluting compound 2 with assay buffer to give a final compound 2 concentration of 10 μM (final DMSO concentration of 1% v/v). The fluorescent integrity marker lucifer yellow is also included in the dosing solution. Analytical standards are prepared from test compound DMSO dilutions and transferred to buffer, maintaining a 1% v/v DMSO concentration.
(§6) For assessment of A-B permeability, HBSS is removed from the apical compartment and replaced with compound 2 dosing solution. The apical compartment insert is then placed into a companion plate containing fresh buffer (containing 1% v/v DMSO). For assessment of B-A permeability, HBSS is removed from the companion plate and replaced with compound 2 dosing solution. Fresh buffer (containing 1% v/v DMSO) is added to the apical compartment insert, which is then placed into the companion plate.
(§7) At 60 min the apical compartment inserts and the companion plates are separated and apical and basolateral samples diluted for analysis.
(§8) Compound 2 permeability is assessed in duplicate. Compounds of known permeability characteristics are run as controls on each assay plate.
(§9) Compound 2 and control compounds are quantified by LC-MS/MS cassette analysis using an 8-point calibration with appropriate dilution of the samples. The starting concentration (Co) is determined from the dosing solution and the experimental recovery calculated from Co and both apical and basolateral compartment concentrations.
(§10) The integrity of the monolayer throughout the experiment is checked by monitoring lucifer yellow permeation using fluorimetric analysis. Lucifer yellow permeation is high if monolayers have been damaged.

The subject of another data set is MDR1-MDCK cells. Nature of the data set: MDR1-MDCK permeability assay. It is filed as in vitro ADME. As to the method:
as §4, §5, §6, §7, §8, §9, §10

Where two headings read alike, the source gives them in different places.

On to `O=C(CNc1c(F)c(F)nc(F)c1F)N[C@H]1N=C(c2ccccc2)c2ccccc2NC1=O` [Compound 2], for which the microsomal CLint at 3 μM in data set [1] (pH 7.4, 0.5 mg/mL protein, read-out: Intrinsic clearance - dog) is 7.05 µL/min/mg; in data set [3] (pH 7.4, 0.5 mg/mL protein, read-out: Intrinsic clearance - rat), 29.2 µL/min/mg; in data set [5] (pH 7.4, 0.5 mg/mL protein, read-out: Intrinsic clearance - human), 52.6 µL/min/mg. Moreover, the half-life at 3 μM stood at 197 min in data set [1] (pH 7.4, read-out: t½ - dog); 47.5 min in data set [3] (pH 7.4, read-out: t½ - rat); 26.3 min in data set [5] (pH 7.4, read-out: t½ - human). Moreover, in data set [2] (IV and PO), the “Pharmacokinetic assessment in words” value is on record as “orally bioavailable with moderate clearance”. In data set [2] (PO 10 mg/kg vs IV 1 mg/kg), this compound had an F of 54.8%. In data set [2] (male, CD-1, plasma, IV 1 mg/kg), the Vd turned out to be 3.65 L/kg. In data set [2] (male, CD-1, plasma, IV 1 mg/kg), this compound came in with a clearance of 63.1 mL/min/kg. The half-life was found to be 59 min in data set [2] (male, CD-1, plasma, IV 1 mg/kg, read-out: IV t½) and 132 min in data set [2] (male, CD-1, plasma, PO 10 mg/kg, read-out: PO t½). Besides, in data set [2] (male, CD-1, plasma, PO 10 mg/kg), the Cmax was found to be 349 ng/mL. Further, the IC50 with RSV (compound added during infection only, read-out: Plaque IC50 (during infection only)) worked out at 10.9 µM; with RSV (compound added post infection only, read-out: Plaque IC50 (post infection only)), 2 µM; with RSV (standard plaque reduction assay, read-out: Plaque IC50), 1.1 µM. In data set [4], the CC50 was found to be 100 µM. Besides, the Papp A→B at 60 min, 10 μM in the data set with MDR1 (10 μM, 60 min, read-out: Permeability A2B) was 0.553 ×10⁻⁶ cm/s. For the same compound, the Papp B→A at 60 min, 10 μM in the data set with MDR1 (10 μM, 60 min, read-out: Permeability B2A) amounted to 76.3 ×10⁻⁶ cm/s. Besides, the efflux ratio at 60 min, 10 μM in the data set with MDR1 (read-out: Efflux ratio B2A/A2B) is 138. Further, the “Permeability assessment in words” value with MDR1-MDCK cells is “permeable compound but with a susceptibility for an efflux mechanism”.

As usually defined, the Vd is a proportionality between amount in the body and measured concentration, not a real space. High values mean wide distribution into tissue, low ones little distribution into tissue. As a reminder, the clearance is a measure of how efficiently the substance is removed, as volume per time. A high value points to a high capacity for elimination. As a reminder, the Cmax is the maximum level reached in the sampled fluid or tissue. By IC50 is commonly meant the concentration at which inhibition is half-maximal. The term CC50 denotes the concentration that lowers cell viability or growth by half. Lower therefore signals harm at low concentration.
